# In ChEMBL document CHEMBL3272002, “Central nervous system depressants. 13. s-Triazolo-1,5-benzodiazepin-5-ones” (1976):
# Active and inactive are the calls of the source. No cut-off for these calls is given here.
# Columns and labels:
# Mus musculus [1] = assay: Inhibition of nicotine-induced response in CF-1 mouse at 100 mg/kg, ip; assay type: functional, organism-based; set-up: dose 100 mg/kg
# Mus musculus [2] = assay: Anticonvulsant activity in CF-1 mouse assessed as reduction of strychnine-induced response at 100 mg/kg, ip; assay type: functional, organism-based; set-up: dose 100 mg/kg
# Mus musculus [3] = assay: Anticonvulsant activity in CF-1 mouse assessed as reduction of pentylenetetrazole-induced response at 100 mg/kg, ip; assay type: functional, organism-based; set-up: dose 100 mg/kg
# Mus musculus [4] = assay: Reduction in hypoxic stress in CF-1 mouse at 100 mg/kg, ip; assay type: functional, organism-based; set-up: dose 100 mg/kg
# Mus musculus [5] = assay: Inhibition of nicotine-induced response in ip dosed CF-1 mouse; assay type: functional; conditions: CF-1, ip
# Mus musculus [6] = assay: Anticonvulsant activity in ip dosed CF-1 mouse assessed as reduction of pentylenetetrazole-induced response; assay type: functional; conditions: CF-1, ip
# Mus musculus [7] = assay: Anticonvulsant activity in ip dosed CF-1 mouse assessed as reduction of strychnine-induced response; assay type: functional; conditions: CF-1, ip
# Mus musculus [8] = assay: Reduction in hypoxic stress in ip dosed CF-1 mouse; assay type: functional; conditions: CF-1, ip
SMILES,inhibition (Mus musculus [1]),Activity (Mus musculus [2]),Activity (Mus musculus [3]),Activity (Mus musculus [4]),ED50 (Mus musculus [5]) [mg/kg],ED50 (Mus musculus [6]) [mg/kg],ED50 (Mus musculus [7]) [mg/kg],ED50 (Mus musculus [8]) [mg/kg]
O=C1Cc2nnc(CCl)n2-c2ccc(Cl)cc2N1c1ccccc1,inactive,inactive,inactive,inactive,–,–,–,–
CN(C)Cc1nnc2n1-c1ccc(Cl)cc1N(c1ccccc1)C(=O)C2,–,–,–,–,89,25,–,–
Cc1nnc2n1-c1ccc(Cl)cc1N(c1ccccc1)C(=O)C2,–,–,–,–,5,7,28,60
CNC1=Nc2ccc(Cl)cc2C(c2ccccc2)=[N+]([O-])C1 [CHLORDIAZEPOXIDE],–,–,–,–,1,2.6,13,10.5
